Data: ChEMBL document CHEMBL4507264, “Data for DCP probe BAY-7598” (2021)

Assays:
[1] = biological target: Ephrin type-A receptor 8 (Homo sapiens) (UniProt P29322); settings: Compound concentration 1000.0 nM
[2] = biological target: Microtubule-associated serine/threonine-protein kinase 1 (Homo sapiens) (UniProt Q9Y2H9); settings: Compound concentration 1000.0 nM
[3] = biological target: Serine/threonine-protein kinase SIK2 (Homo sapiens) (UniProt Q9H0K1); settings: Compound concentration 1000.0 nM
[4] = biological target: Ephrin type-A receptor 4 (Homo sapiens) (UniProt P54764); settings: Compound concentration 1000.0 nM
[5] = biological target: Tyrosine-protein kinase receptor UFO (Homo sapiens) (UniProt P30530); settings: Compound concentration 1000.0 nM
[6] = test system: Receptor-type tyrosine-protein kinase FLT3 (Homo sapiens), P36888 [UNDEFINED MUTATION]; settings: Compound concentration 1000.0 nM
[7] = biological target: Platelet-derived growth factor receptor alpha (Homo sapiens) (UniProt P16234); settings: Compound concentration 1000.0 nM
[8] = biological target: Tyrosine-protein kinase ABL2 (Homo sapiens) (UniProt P42684); settings: Compound concentration 1000.0 nM
[9] = test system: Epidermal growth factor receptor (Homo sapiens), P00533 [L858R]; settings: Compound concentration 1000.0 nM
[10] = biological target: Ephrin type-A receptor 2 (Homo sapiens) (UniProt P29317); settings: Compound concentration 1000.0 nM
[11] = biological target: Glycogen synthase kinase-3 alpha (Homo sapiens) (UniProt P49840); settings: Compound concentration 1000.0 nM
[12] = biological target: GABA-A receptor; anion channel (Rattus norvegicus) (UniProt O09028+P15431+P18506+P18508+P19969+P20236+P23574+P23576+P28471+P28473+P30191+P62813+P63079+P63138+Q91ZM7+Q9ES14); settings: Compound concentration 10.0 uM
[13] = biological target: NT-3 growth factor receptor (Homo sapiens) (UniProt Q16288); settings: Compound concentration 1000.0 nM
[14] = biological target: Hepatocyte growth factor receptor (Homo sapiens) (UniProt P08581); settings: Compound concentration 1000.0 nM
[15] = biological target: Peripheral plasma membrane protein CASK (Homo sapiens) (UniProt O14936); settings: Compound concentration 1000.0 nM
[16] = biological target: Mitogen-activated protein kinase kinase kinase 5 (Homo sapiens) (UniProt Q99683); settings: Compound concentration 1000.0 nM
[17] = biological target: Calcium/calmodulin-dependent protein kinase type II subunit delta (Homo sapiens) (UniProt Q13557); settings: Compound concentration 1000.0 nM
[18] = biological target: Tyrosine-protein kinase ABL1 (Homo sapiens) (UniProt P00519); settings: Compound concentration 1000.0 nM
[19] = biological target: Ephrin type-A receptor 5 (Homo sapiens) (UniProt P54756); settings: Compound concentration 1000.0 nM
[20] = biological target: Cyclin-dependent kinase 5 (Homo sapiens) (UniProt Q00535); settings: Compound concentration 1000.0 nM
[21] = biological target: Casein kinase I isoform gamma-1 (Homo sapiens) (UniProt Q9HCP0); settings: Compound concentration 1000.0 nM
[22] = biological target: Tyrosine-protein kinase receptor Tie-1 (Homo sapiens) (UniProt P35590); settings: Compound concentration 1000.0 nM
[23] = biological target: Serine/threonine-protein kinase NLK (Homo sapiens) (UniProt Q9UBE8); settings: Compound concentration 1000.0 nM
[24] = biological target: Wee1-like protein kinase (Homo sapiens) (UniProt P30291); settings: Compound concentration 1000.0 nM
[25] = test system: Mast/stem cell growth factor receptor Kit (Homo sapiens), P10721 [V559D,T670I]; settings: Compound concentration 1000.0 nM
[26] = biological target: Ribosomal protein S6 kinase alpha-4 (Homo sapiens) (UniProt O75676); settings: Compound concentration 1000.0 nM
[27] = biological target: Leukocyte tyrosine kinase receptor (Homo sapiens) (UniProt P29376); settings: Compound concentration 1000.0 nM
[28] = biological target: Ankyrin repeat and protein kinase domain-containing protein 1 (Homo sapiens) (UniProt Q8NFD2); settings: Compound concentration 1000.0 nM
[29] = biological target: AP2-associated protein kinase 1 (Homo sapiens) (UniProt Q2M2I8); settings: Compound concentration 1000.0 nM
[30] = biological target: Mitogen-activated protein kinase 10 (Homo sapiens) (UniProt P53779); settings: Compound concentration 1000.0 nM
[31] = biological target: Cyclin-dependent kinase 2 (Homo sapiens) (UniProt P24941); settings: Compound concentration 1000.0 nM
[32] = test system: Phosphatidylinositol 4,5-bisphosphate 3-kinase catalytic subunit alpha isoform (Homo sapiens), P42336 [H1047Y]; settings: Compound concentration 1000.0 nM
[33] = biological target: Serine/threonine-protein kinase 17A (Homo sapiens) (UniProt Q9UEE5); settings: Compound concentration 1000.0 nM
[34] = biological target: Cyclin-dependent kinase 7 (Homo sapiens) (UniProt P50613); settings: Compound concentration 1000.0 nM
[35] = biological target: Serine/threonine-protein kinase DCLK2 (Homo sapiens) (UniProt Q8N568); settings: Compound concentration 1000.0 nM
[36] = biological target: Cyclin-dependent kinase 13 (Homo sapiens) (UniProt Q14004); settings: Compound concentration 1000.0 nM
[37] = biological target: Aurora kinase B (Homo sapiens) (UniProt Q96GD4); settings: Compound concentration 1000.0 nM
[38] = biological target: 5'-AMP-activated protein kinase catalytic subunit alpha-1 (Homo sapiens) (UniProt Q13131); settings: Compound concentration 1000.0 nM
[39] = biological target: Serine/threonine-protein kinase SBK1 (Homo sapiens) (UniProt Q52WX2); settings: Compound concentration 1000.0 nM
[40] = test system: Receptor-type tyrosine-protein kinase FLT3 (Homo sapiens), P36888 [N841I]; settings: Compound concentration 1000.0 nM
[41] = biological target: Homeodomain-interacting protein kinase 1 (Homo sapiens) (UniProt Q86Z02); settings: Compound concentration 1000.0 nM
[42] = biological target: Protein-tyrosine kinase 6 (Homo sapiens) (UniProt Q13882); settings: Compound concentration 1000.0 nM
[43] = biological target: Cyclin-dependent kinase 9 (Homo sapiens) (UniProt P50750); settings: Compound concentration 1000.0 nM
[44] = test system: Proto-oncogene tyrosine-protein kinase receptor Ret (Homo sapiens), P07949 [V804M]; settings: Compound concentration 1000.0 nM

Mitogen-activated protein kinase kinase kinase 5 (Homo sapiens), sequence (Q99683 whole entry): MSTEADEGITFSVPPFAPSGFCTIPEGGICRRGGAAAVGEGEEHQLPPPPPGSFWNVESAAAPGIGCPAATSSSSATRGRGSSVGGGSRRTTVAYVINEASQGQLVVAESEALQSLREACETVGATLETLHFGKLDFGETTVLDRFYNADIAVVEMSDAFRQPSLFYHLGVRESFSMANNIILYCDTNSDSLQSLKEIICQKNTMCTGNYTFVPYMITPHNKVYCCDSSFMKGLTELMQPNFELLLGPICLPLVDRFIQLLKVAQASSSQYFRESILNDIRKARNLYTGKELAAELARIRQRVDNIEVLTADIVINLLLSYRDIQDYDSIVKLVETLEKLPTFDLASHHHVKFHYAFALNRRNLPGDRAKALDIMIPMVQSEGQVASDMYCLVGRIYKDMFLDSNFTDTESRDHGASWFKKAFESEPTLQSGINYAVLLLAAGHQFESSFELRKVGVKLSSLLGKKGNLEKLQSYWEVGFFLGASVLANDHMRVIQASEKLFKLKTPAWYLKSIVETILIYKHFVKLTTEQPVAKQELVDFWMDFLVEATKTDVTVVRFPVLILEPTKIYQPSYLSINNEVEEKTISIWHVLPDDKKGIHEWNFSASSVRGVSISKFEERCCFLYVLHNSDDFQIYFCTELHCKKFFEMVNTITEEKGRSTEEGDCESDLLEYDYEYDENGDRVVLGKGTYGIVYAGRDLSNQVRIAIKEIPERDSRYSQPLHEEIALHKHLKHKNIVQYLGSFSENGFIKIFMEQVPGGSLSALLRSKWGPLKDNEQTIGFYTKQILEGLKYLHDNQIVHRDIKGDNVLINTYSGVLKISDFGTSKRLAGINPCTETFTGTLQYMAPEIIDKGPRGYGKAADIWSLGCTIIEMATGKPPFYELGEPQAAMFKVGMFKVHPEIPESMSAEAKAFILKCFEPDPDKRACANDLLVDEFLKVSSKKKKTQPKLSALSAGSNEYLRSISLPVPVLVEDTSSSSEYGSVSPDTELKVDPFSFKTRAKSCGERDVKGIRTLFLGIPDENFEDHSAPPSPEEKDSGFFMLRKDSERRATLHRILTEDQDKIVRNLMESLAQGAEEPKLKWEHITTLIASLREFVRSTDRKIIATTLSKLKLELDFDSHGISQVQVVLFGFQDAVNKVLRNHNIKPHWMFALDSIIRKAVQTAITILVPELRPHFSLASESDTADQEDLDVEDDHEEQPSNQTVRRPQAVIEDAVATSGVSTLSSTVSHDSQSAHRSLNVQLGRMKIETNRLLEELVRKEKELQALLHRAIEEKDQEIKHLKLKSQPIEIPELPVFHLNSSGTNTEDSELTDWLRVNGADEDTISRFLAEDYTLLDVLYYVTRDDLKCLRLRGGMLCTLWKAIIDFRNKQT
5'-AMP-activated protein kinase catalytic subunit alpha-1 (Homo sapiens), sequence (Q13131 whole entry, looked up): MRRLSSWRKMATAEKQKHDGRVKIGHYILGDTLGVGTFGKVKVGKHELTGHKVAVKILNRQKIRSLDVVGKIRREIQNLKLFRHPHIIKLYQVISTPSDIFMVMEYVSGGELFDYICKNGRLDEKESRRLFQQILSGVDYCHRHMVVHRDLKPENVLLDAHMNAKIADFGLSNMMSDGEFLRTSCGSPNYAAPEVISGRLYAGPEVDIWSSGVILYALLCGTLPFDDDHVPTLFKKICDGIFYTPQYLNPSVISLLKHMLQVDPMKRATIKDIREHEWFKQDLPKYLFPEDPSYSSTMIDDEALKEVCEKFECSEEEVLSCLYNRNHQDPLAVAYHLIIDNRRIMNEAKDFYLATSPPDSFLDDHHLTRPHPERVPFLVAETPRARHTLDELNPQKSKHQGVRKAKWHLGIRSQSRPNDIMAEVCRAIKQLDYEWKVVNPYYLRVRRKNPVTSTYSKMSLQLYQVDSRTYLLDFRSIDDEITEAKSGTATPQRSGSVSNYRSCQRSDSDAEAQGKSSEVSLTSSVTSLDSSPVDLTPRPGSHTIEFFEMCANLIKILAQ
NT-3 growth factor receptor (Homo sapiens), sequence (Q16288 32-839 limits assumed): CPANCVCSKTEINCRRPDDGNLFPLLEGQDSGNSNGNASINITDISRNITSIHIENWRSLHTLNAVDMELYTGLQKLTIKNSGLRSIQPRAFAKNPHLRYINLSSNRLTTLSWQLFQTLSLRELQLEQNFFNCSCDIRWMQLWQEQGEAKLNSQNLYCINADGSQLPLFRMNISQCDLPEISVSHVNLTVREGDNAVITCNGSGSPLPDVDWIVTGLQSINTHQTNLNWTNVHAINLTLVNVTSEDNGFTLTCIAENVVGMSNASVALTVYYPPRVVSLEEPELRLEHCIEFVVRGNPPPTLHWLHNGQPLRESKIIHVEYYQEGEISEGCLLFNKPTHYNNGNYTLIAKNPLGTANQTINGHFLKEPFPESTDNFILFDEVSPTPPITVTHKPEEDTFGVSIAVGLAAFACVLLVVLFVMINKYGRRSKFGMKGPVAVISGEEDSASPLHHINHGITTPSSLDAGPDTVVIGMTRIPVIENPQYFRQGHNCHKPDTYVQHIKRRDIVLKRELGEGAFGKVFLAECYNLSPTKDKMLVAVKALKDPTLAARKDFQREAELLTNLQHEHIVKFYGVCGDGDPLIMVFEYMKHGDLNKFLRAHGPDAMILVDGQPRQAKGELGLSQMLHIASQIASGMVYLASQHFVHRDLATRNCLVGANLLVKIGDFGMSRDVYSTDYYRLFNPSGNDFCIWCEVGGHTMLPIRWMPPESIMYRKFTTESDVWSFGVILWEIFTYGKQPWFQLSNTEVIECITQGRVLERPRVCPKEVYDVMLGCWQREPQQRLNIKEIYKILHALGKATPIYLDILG
Serine/threonine-protein kinase DCLK2 (Homo sapiens), sequence (Q8N568 whole entry): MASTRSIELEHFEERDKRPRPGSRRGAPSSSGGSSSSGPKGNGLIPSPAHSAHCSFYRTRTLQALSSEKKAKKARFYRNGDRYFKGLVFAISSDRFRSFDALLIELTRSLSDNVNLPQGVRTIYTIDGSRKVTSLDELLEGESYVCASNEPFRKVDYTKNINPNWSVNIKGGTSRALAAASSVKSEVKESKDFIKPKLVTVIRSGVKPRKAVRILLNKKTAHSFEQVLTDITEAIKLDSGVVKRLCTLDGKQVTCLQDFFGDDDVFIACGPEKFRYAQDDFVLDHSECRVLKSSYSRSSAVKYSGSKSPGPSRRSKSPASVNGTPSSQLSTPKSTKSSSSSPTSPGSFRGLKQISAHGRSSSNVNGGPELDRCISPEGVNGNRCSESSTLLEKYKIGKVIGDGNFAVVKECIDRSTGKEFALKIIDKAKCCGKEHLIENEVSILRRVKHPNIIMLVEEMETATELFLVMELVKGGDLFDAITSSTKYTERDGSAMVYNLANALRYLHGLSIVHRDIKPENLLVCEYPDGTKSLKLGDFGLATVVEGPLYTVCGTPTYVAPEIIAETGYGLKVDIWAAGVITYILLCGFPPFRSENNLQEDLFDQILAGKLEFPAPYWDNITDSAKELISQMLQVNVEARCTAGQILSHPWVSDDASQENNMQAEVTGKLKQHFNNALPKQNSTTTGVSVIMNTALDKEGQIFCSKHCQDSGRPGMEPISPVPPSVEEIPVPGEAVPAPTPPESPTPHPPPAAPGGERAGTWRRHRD
Cyclin-dependent kinase 7 (Homo sapiens), sequence (P50613 whole entry): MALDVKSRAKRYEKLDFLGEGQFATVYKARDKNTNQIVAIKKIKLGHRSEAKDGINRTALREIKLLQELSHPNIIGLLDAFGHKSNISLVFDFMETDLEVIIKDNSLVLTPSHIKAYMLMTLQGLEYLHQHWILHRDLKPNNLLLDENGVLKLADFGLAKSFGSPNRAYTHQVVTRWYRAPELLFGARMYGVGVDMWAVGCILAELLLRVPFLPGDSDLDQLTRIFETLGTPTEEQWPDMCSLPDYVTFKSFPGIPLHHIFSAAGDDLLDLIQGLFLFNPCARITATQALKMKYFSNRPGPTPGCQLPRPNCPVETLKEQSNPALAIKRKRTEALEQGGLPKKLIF
Peripheral plasma membrane protein CASK (Homo sapiens), sequence (O14936 whole entry): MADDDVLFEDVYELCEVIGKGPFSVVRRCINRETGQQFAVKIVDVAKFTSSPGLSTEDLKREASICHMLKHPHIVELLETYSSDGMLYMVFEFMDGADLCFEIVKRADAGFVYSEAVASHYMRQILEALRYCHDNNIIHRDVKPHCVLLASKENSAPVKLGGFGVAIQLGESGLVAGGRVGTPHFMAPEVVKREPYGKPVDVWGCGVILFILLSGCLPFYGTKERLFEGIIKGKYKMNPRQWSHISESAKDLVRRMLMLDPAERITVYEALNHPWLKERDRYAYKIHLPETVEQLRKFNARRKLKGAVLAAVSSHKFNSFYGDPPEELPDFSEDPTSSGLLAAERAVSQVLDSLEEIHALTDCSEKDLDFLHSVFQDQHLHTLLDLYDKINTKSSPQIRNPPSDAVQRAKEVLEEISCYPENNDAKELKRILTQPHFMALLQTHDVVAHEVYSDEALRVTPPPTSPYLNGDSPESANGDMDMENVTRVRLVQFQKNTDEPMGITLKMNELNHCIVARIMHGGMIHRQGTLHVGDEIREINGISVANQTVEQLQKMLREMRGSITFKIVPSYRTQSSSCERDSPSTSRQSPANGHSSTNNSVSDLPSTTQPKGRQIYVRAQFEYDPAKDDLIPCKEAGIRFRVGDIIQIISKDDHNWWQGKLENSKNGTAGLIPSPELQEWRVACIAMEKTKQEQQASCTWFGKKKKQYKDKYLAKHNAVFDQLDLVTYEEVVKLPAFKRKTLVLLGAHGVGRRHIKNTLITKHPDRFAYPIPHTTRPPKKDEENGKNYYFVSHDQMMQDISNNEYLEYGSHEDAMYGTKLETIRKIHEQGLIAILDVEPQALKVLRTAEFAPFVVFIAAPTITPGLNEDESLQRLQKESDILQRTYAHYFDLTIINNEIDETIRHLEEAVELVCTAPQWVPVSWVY
Cyclin-dependent kinase 5 (Homo sapiens), sequence (Q00535 whole entry, looked up, canonical isoform): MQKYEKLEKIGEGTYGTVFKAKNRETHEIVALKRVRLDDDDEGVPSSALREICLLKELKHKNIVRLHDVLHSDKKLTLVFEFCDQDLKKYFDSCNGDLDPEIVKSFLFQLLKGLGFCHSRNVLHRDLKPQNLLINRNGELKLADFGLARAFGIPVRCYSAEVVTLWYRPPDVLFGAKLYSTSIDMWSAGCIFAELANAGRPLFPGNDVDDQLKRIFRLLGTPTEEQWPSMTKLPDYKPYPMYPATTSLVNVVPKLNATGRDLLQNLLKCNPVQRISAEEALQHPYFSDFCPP

O=C(O)[C@@H]1[C@@H](Cn2nnc3ccccc3c2=O)CC[C@H]1C(=O)c1ccc(OCCC2CCOCC2)cc1 [BAY-694]
inactive: residual activity [1] 99% | residual activity [2] 100% | residual activity [3] 91% | residual activity [4] 92% | residual activity [5] 100% | residual activity [6] 100% | residual activity [7] 100% | residual activity [8] 92% | residual activity [9] 100% | residual activity [10] 100% | residual activity [11] 93% | inhibition [12] 13.1% | residual activity [13] 86% | residual activity [14] 100% | residual activity [15] 100% | residual activity [16] 94% | residual activity [17] 100% | residual activity [18] 79% | residual activity [19] 94% | residual activity [20] 81% | residual activity [21] 99% | residual activity [22] 100% | residual activity [23] 86% | residual activity [24] 93% | residual activity [25] 98% | residual activity [26] 100% | residual activity [27] 100% | residual activity [28] 100% | residual activity [29] 100% | residual activity [30] 100% | residual activity [31] 100% | residual activity [32] 94% | residual activity [33] 98% | residual activity [34] 86% | residual activity [35] 87% | residual activity [36] 92% | residual activity [37] 100% | residual activity [38] 100% | residual activity [39] 100% | residual activity [40] 98% | residual activity [41] 91% | residual activity [42] 99% | residual activity [43] 100% | residual activity [44] 100%

O=C(O)[C@H]1[C@H](Cn2nnc3ccccc3c2=O)CC[C@@H]1C(=O)c1ccc(OCCC2CCOCC2)cc1 [BAY-7598]
inactive: residual activity [1] 100% | residual activity [2] 98% | residual activity [3] 100% | residual activity [4] 90% | residual activity [5] 100% | residual activity [6] 93% | residual activity [7] 100% | residual activity [8] 99% | residual activity [9] 95% | residual activity [10] 93% | residual activity [11] 74% | inhibition [12] 6.48% | residual activity [13] 82% | residual activity [14] 94% | residual activity [15] 100% | residual activity [16] 95% | residual activity [17] 86% | residual activity [18] 89% | residual activity [19] 100% | residual activity [20] 100% | residual activity [21] 94% | residual activity [22] 75% | residual activity [23] 100% | residual activity [24] 100% | residual activity [25] 69% | residual activity [26] 100% | residual activity [27] 100% | residual activity [28] 100% | residual activity [29] 78% | residual activity [30] 83% | residual activity [31] 100% | residual activity [32] 88% | residual activity [33] 97% | residual activity [34] 95% | residual activity [35] 79% | residual activity [36] 93% | residual activity [37] 100% | residual activity [38] 100% | residual activity [39] 68% | residual activity [40] 85% | residual activity [41] 100% | residual activity [42] 100% | residual activity [43] 72% | residual activity [44] 96%
